According to patent US20160271028A1, “NOVEL USE OF PANDURATIN DERIVATIVES OR EXTRACT OF KAEMPFERIA PANDURATA COMPRISING THE SAME” (Newtree Co., Ltd., priority 2007, published 2016):

What was measured:
MMP-1 = MMP-1 expression in fibroblasts by Western blotting and RT-PCR; assay type: cell-based; details: for expression of MMP-1 mRNAs: RT-PCR; for expression of MMP-1 proteins: Western blotting; for MMP-1 inhibition and procollagen promotion activity compared with the control substance EGCG: Western blotting and RT-PCR, covers MMP-1 and procollagen
Procedure: (§1) MMP-1 inhibition activity and procollagen synthesis promotion effect of the Kaempferia pandurata ethanol extract prepared in Example 1 were measured by Western blotting and reverse transcriptase-polymerase chain reaction (RT-PCR).
(§2) Specifically, proteins were extracted from cultured fibroblasts and quantitated using a protein assay reagent (Bio-Rad Laboratories Inc., Hercules, Calif., USA). For Western blotting, the proteins were heated for 3 minutes and, after cooling, transferred to a nitrocellulose membrane (Amersham International, Little Chalfont, England) through electrophoresis in 10% SDS-PAGE. The membrane was saturated with 5% skim milk in TBST (10 mM Tris, pH 7.5, 100 mM NaCl, 0.1% Tween 20). After blotting for 2 hours using primary antibodies (diluted to 1:1000), followed by washing with TBST, blotting was performed for 2 hours using secondary antibodies (diluted to 1:2000). After washing with TBST for 3 times, the blotted antibodies were analyzed using an ECL detection system (Amersham International, Little Chalfont, England).
(§3) For RT-PCR, RNAs were isolated from fibroblasts using TRIZOL (Invitrogen, USA). The isolated RNAs were quantitated using MMP-1 and procollagen primers and Taq polymerase. Specifically, RT-PCR was carried out using MMP-1 primer for 25 cycles, each cycle consisting of 30 seconds at 94° C., 1 minute at 50° C. and 1 minute at 72° C. And RT-PCR was carried out using procollagen primer for 28 cycles, each cycle consisting of 30 seconds at 94° C., 1 minute at 60° C. and 1 minute at 72° C. Then, after electrophoresis using 1% agarose gel, expression of mRNA for MMP-1 and procollagen was analyzed through ethidium bromide (EtBr) illumination.
(§4) MMP-1 inhibition activity and procollagen synthesis promotion effect of the panduratin derivatives prepared in Examples 2 through 4 were measured by Western blotting and RT-PCR in the same manner as Test Example 2-1.

fibroblasts = assay: MTT assay, cell proliferation of fibroblasts; assay type: cell-based
Procedure: MTT assay [3-(4,5-dimethylthiazol-2-yl)-2,5-diphenyltetrazolium bromide reduction method] was performed on fibroblasts to evaluate cell proliferation of the panduratin derivatives prepared in Examples 2 through 4. Epigallocatechin-3-O-gallate (EGCG), which is known to have skin wrinkle improvement effect, was selected as control substance.

procollagen = assay: Procollagen synthesis in fibroblasts by Western blotting and RT-PCR; assay type: cell-based; details: for expression of procollagen mRNAs: RT-PCR; for expression of procollagen proteins: Western blotting
Procedure: as §1, §2, §3, §4

[1] = test system: Jun-N-terminal kinase (JNK); assay: UV-induced activation (phosphorylation) of JNK in fibroblasts, Western blotting; assay type: cell-based, Human; details: CCD-986sk fibroblasts, UV 20 mJ/cm^2, 24 h pretreatment
Procedure: (§5) Human skin fibroblasts (CCD-986sk, ATCC, Manassas, Va., USA) were cultured in DMEM (Gibco, Grand Island, N.Y., USA). The fibroblasts were cultured on a 10 cm Petri dish (SPL, Seoul, Korea) to a concentration of 80% and further cultured for 24 hours in serum-free culture medium. Then, the cells were cultured for 24 hours in serum-free DMEM containing the panduratin A of Example 2. After replacing the culture medium with 5 mL of phosphate-buffered saline (PBS), the cells were exposed to UV (20 mJ/cm^2). Cells that were not exposed to UV were used as negative control group, and cells treated with EGCG were used as positive control group.
(§6) The fibroblasts were lysed in RIPA buffer (Sigma-Aldrich Co., St. Louis, Mo., USA) and proteins were quantitated using a protein assay reagent (Bio-Rad Laboratories Inc., Hercules, Calif., USA). […] After washing with TBST for 3 times, the blotted antibodies were analyzed using an ECL detection system (Amersham International, Little Chalfont, England). The detection level was measured using the software RFLPscan version 2.1.
(§7) Through this procedure, the change of activity of extracellular-regulated protein kinase (ERK), Jun-N-terminal kinase (JNK) and p38 kinase, which belong to the MAPKs, was measured.

[2] = test system: hairless mice (Hos: HR-1); assay: Wrinkle improvement in UV-exposed hairless mice, application on skin; assay type: in vivo
Procedure: Forty eight 6-week-old female hairless mice (Hos: HR-1) were accustomed for a week and randomly divided into 6 groups, 8 per each. The hairless mice (Hos:HR-1) were exposed to UV for 8 weeks. UV irradiation was carried out 3 times a week, from 1 MED (1 MED=50 mJ/cm^2) to 4 MED, until the end of the test. The 6 test groups were: non UV-treated group, UV-treated group, UV- and Kaempferia pandurata ethanol extract (0.1%, 0.5%)-treated group, and UV- and panduratin A (1 mM, 5 mM)-treated group. Each sample was dissolved in a mixture solvent of ethanol and polyethylene glycol (7:3, v/v) and 50 μL was applied on the back of the mice every day for 8 weeks. For the non UV-treated group and the UV-treated group, 50 μL of a mixture of ethanol and polyethylene glycol (7:3, v/v) was applied.
In order to investigate wrinkle prevention effect, skin replicas were taken using silicone polymer (SILFLO Impression Material, Flexico, England). The image files of the skin replicas were subjected to wrinkle evaluation using the computer image analysis software Skin Visiometer SV 600 (Courage+Khazaha Electronic, Kln, Germany) Rt, Rm, Rz and Ra values (Rt: the distance from the highest and lowest portions on the skin surface, Rm: the maximum Rt value of 5 measurements, Rz: the mean Rt value of 5 measurements, Ra: the arithmetic mean surface roughness) were determined.

p38 kinase = assay: UV-induced activation (phosphorylation) of p38 kinase in fibroblasts, Western blotting; assay type: cell-based, Human; details: CCD-986sk fibroblasts, UV 20 mJ/cm^2, 24 h pretreatment
Procedure: as §5, §6, §7

[3] = test system: extracellular-regulated protein kinase (ERK); assay: UV-induced activation (phosphorylation) of ERK in fibroblasts, Western blotting; assay type: cell-based, Human; details: CCD-986sk fibroblasts, UV 20 mJ/cm^2, 24 h pretreatment
Procedure: as §5, §6, §7

AP-1 = assay: Electrophoretic mobility shift assay (EMSA), DNA binding activity of AP-1; assay type: cell-based, Human; details: nuclear proteins of UV-exposed fibroblasts
Procedure: as §5
Electrophoretic mobility shift assay (EMSA) was performed to measure the DNA binding activity of AP-1. Specifically, the fibroblasts, which were cultured in Test Example 3-1, to which panduratin A was added and which were exposed to UV, were washed with PBS and collected. […] Gel shift assay was carried out using quantitated nuclear proteins according to the manufacturer's instructions (Gel Shift Kit System; Panomics, Fremont, Calif., USA). Then, the detected proteins were analyzed with an ECL detection system (Amersham International, Little Chalfont, England) and the detection level was measured using the software RFLPscan version 2.1.
DNA binding activity of AP-1 was determined through this procedure.

c-Jun = c-Jun activity in UV-exposed fibroblasts, Western blotting; assay type: cell-based, Human
Procedure: as §5
(§8) The fibroblasts were lysed in RIPA buffer (Sigma-Aldrich Co., St. Louis, Mo., USA) and proteins were quantitated using a protein assay reagent (Bio-Rad Laboratories Inc., Hercules, Calif., USA). For Western blotting, the proteins were heated for 3 minutes and, after cooling, transferred to a nitrocellulose membrane (Amersham International, Little Chalfont, England) through electrophoresis in 10% SDS-PAGE. The membrane was saturated with 5% skim milk in TBST (10 mM Tris, pH 7.5, 100 mM NaCl, 0.1% Tween 20). […] After washing with TBST for 3 times, the blotted antibodies were analyzed using an ECL detection system (Amersham International, Little Chalfont, England). The detection level was measured using the software RFLPscan version 2.1. […]

c-Fos = c-Fos activity in UV-exposed fibroblasts, Western blotting; assay type: cell-based, Human
Procedure: as §5, §8

[4] = application on skin, 8 weeks, p<0.05

Row | Molecule | expression of MMP-1 mRNAs (MMP-1) | expression of MMP-1 proteins (MMP-1) | MMP-1 inhibition and procollagen promotion activity compared with the control substance EGCG (MMP-1) | Proliferation effect (%) (fibroblasts; 0.001 μM) | Proliferation effect (%) (fibroblasts; 0.01 μM) | Proliferation effect (%) (fibroblasts; 0.1 μM) | Proliferation effect (%) (fibroblasts; 1 μM) | Proliferation effect (%) (fibroblasts; 10 μM) | Proliferation effect (%) (fibroblasts; 50 μM) | expression of procollagen mRNAs (procollagen) | expression of procollagen proteins (procollagen) | other results
1 | CC(C)=CC[C@@H]1C(C)=CC[C@@H](c2ccccc2)[C@@H]1C(=O)c1c(O)cc(O)cc1O [4-Hydroxypanduratin A, 4-hydroxypanduratin A] | decrease of MMP-1 proteins and mRNAs in a concentration-dependent manner | decrease of MMP-1 proteins and mRNAs in a concentration-dependent manner | better activity than the control substance EGCG | 101 | 102 | 109 | 119 | 121 | 128 | increased in a concentration-dependent manner | increased in a concentration-dependent manner | 
2 | COc1cc(O)cc(O)c1C(=O)[C@@H]1[C@H](CC=C(C)C)C(C)=CC[C@H]1c1ccccc1 [Isopanduratin A, isopanduratin A] | decrease of MMP-1 proteins and mRNAs in a concentration-dependent manner | decrease of MMP-1 proteins and mRNAs in a concentration-dependent manner | better activity than the control substance EGCG | 102 | 102 | 110 | 120 | 124 | 130 | increased in a concentration-dependent manner | increased in a concentration-dependent manner | 
3 | COc1cc(O)c(C(=O)[C@@H]2[C@H](CC=C(C)C)C(C)=CC[C@H]2c2ccccc2)c(O)c1 [Panduratin A, panduratin A] | decrease of MMP-1 proteins and mRNAs in a concentration-dependent manner | decrease of MMP-1 proteins and mRNAs in a concentration-dependent manner | better activity than the control substance EGCG | 103 | 104 | 111 | 120 | 126 | 131 | increased in a concentration-dependent manner | increased in a concentration-dependent manner | activation of JNK [1]: suppressed in a concentration-dependent manner; wrinkling (skin replicas) as compared to the UV-treated group ([2]; 50 μL on the back daily for 8 weeks, extract 0.1% and 0.5%, panduratin A 1 mM and 5 mM): remarkably decreased wrinkling; Ra value (arithmetic mean surface roughness) [2, 4]: significantly decreased; Rm value (maximum Rt value of 5 measurements) [2, 4]: significantly decreased; Rt value (distance from the highest and lowest portions on the skin surface) [2, 4]: significantly decreased; Rz value (mean Rt value of 5 measurements) [2, 4]: significantly decreased; activation of p38 kinase (p38 kinase): suppressed in a concentration-dependent manner; activation of ERK [3]: suppressed in a concentration-dependent manner; binding of AP-1 to DNA (AP-1): inhibited binding of AP-1 to DNA in a concentration-dependent manner; c-Jun activity (c-Jun): inhibited c-Jun and c-Fos activity in a concentration-dependent manner; c-Fos activity (c-Fos): inhibited c-Jun and c-Fos activity in a concentration-dependent manner
4 | Epigallocatechin-3-O-gallate [EGCG, reference compound] |  |  |  | 102 | 104 | 107 | 119 | 120 | 126 |  |  | 
